Measurements taken from PubChem BioAssay AID1259407 (Chemical Carcinogenesis Research Information System (CCRIS), 2018).
The source made the active and inactive calls. The rule behind the calls is not given here.

System: CCRIS mutagenicity, Ames/micronucleus/aberration tests
Assay: CCRIS mutagenicity studies
[1] = Test System: AMES SALMONELLA TYPHIMURIUM, Strain/Indicator: TA98, Metabolic Activation: NONE, Method: STANDARD PLATE
[2] = Test System: AMES SALMONELLA TYPHIMURIUM, Strain/Indicator: TA100, Metabolic Activation: NONE, Method: STANDARD PLATE
[3] = Test System: AMES SALMONELLA TYPHIMURIUM, Strain/Indicator: TA1535, Metabolic Activation: NONE, Method: STANDARD PLATE
[4] = Test System: AMES SALMONELLA TYPHIMURIUM, Strain/Indicator: TA1537, Metabolic Activation: NONE, Method: STANDARD PLATE
[5] = Test System: AMES SALMONELLA TYPHIMURIUM, Strain/Indicator: TA98, Metabolic Activation: RAT, LIVER, S-9, AROCLOR 1254, Method: STANDARD PLATE
[6] = Test System: AMES SALMONELLA TYPHIMURIUM, Strain/Indicator: TA100, Metabolic Activation: RAT, LIVER, S-9, AROCLOR 1254, Method: STANDARD PLATE
[7] = Test System: AMES SALMONELLA TYPHIMURIUM, Strain/Indicator: TA98, Metabolic Activation: NONE, Method: PREINCUBATION
[8] = Test System: AMES SALMONELLA TYPHIMURIUM, Strain/Indicator: TA1535, Metabolic Activation: NONE, Method: PREINCUBATION

O=[N+]([O-])c1c(-c2ccc(Cl)cc2)nc2sccn12
mutagenic call [1]: active; positive
mutagenic call [2]: inactive; negative
mutagenic call [3]: inactive; negative
mutagenic call [4]: active; positive
mutagenic call (Test System: AMES SALMONELLA TYPHIMURIUM, Strain/Indicator: TA1538, Metabolic Activation: NONE, Method: STANDARD PLATE): active; positive

Nc1cc(Cl)c(Cl)c(Cl)c1
mutagenic call [1]: inactive; negative
mutagenic call [5]: inactive; negative
mutagenic call [2]: inactive; negative
mutagenic call [6]: inactive; negative

C=Cc1ccc(N)cc1
mutagenic call (Test System: AMES SALMONELLA TYPHIMURIUM, Strain/Indicator: TA98, Metabolic Activation: HAMSTER, LIVER, S-9, AROCLOR 1254, Method: STANDARD PLATE): active; positive
mutagenic call [1]: inactive; negative
mutagenic call [5]: inactive; negative
mutagenic call (Test System: AMES SALMONELLA TYPHIMURIUM, Strain/Indicator: TA100, Metabolic Activation: HAMSTER, LIVER, S-9, AROCLOR 1254, Method: STANDARD PLATE): active; positive
mutagenic call [2]: inactive; negative
mutagenic call [6]: inactive; negative
mutagenic call (Test System: MOUSE LYMPHOMA, Strain/Indicator: L5178Y (TK+/TK-), Metabolic Activation: NONE, Method: SUSPENSION/PLATE): inactive; positive. reevaluation of results: negative
mutagenic call (Test System: MOUSE LYMPHOMA, Strain/Indicator: L5178Y (TK+/TK-), Metabolic Activation: RAT, LIVER, S-9, AROCLOR 1254, Method: SUSPENSION/PLATE): inactive; positive. reevaluation of results: negative

COc1cc(OC)c2c(=O)c3c(O)ccc(OC)c3oc2c1
mutagenic call (Test System: AMES SALMONELLA TYPHIMURIUM, Strain/Indicator: TA97, Metabolic Activation: NONE, Method: PREINCUBATION): inactive; negative
mutagenic call (Test System: AMES SALMONELLA TYPHIMURIUM, Strain/Indicator: TA97, Metabolic Activation: RAT, LIVER, S-9, PHENOBARBITAL AND 5,6-BENZOFLAVONE, Method: PREINCUBATION): active; positive
mutagenic call (Test System: AMES SALMONELLA TYPHIMURIUM, Strain/Indicator: TA98, Metabolic Activation: RAT, LIVER, S-9, PHENOBARBITAL AND 5,6-BENZOFLAVONE, Method: PREINCUBATION): inactive; negative
mutagenic call (Test System: AMES SALMONELLA TYPHIMURIUM, Strain/Indicator: TA100, Metabolic Activation: RAT, LIVER, S-9, PHENOBARBITAL AND 5,6-BENZOFLAVONE, Method: PREINCUBATION): inactive; negative
mutagenic call (Test System: AMES SALMONELLA TYPHIMURIUM, Strain/Indicator: TA2637, Metabolic Activation: RAT, LIVER, S-9, PHENOBARBITAL AND 5,6-BENZOFLAVONE, Method: PREINCUBATION): active; positive

O=C1CCCCCCCCCCCCCCO1
mutagenic call [7]: inactive; negative
mutagenic call (Test System: AMES SALMONELLA TYPHIMURIUM, Strain/Indicator: TA98, Metabolic Activation: RAT LIVER S-9, PHENOBARBITAL AND BETA-NAPHTHOFLAVONE, Method: PREINCUBATION): inactive; negative
mutagenic call (Test System: AMES SALMONELLA TYPHIMURIUM, Strain/Indicator: TA100, Metabolic Activation: NONE, Method: PREINCUBATION): inactive; negative
mutagenic call (Test System: AMES SALMONELLA TYPHIMURIUM, Strain/Indicator: TA100, Metabolic Activation: RAT LIVER S-9, PHENOBARBITAL AND BETA-NAPHTHOFLAVONE, Method: PREINCUBATION): inactive; negative
mutagenic call (Test System: AMES SALMONELLA TYPHIMURIUM, Strain/Indicator: TA102, Metabolic Activation: NONE, Method: PREINCUBATION): inactive; negative
mutagenic call (Test System: AMES SALMONELLA TYPHIMURIUM, Strain/Indicator: TA102, Metabolic Activation: RAT LIVER S-9, PHENOBARBITAL AND BETA-NAPHTHOFLAVONE, Method: PREINCUBATION): inactive; negative
mutagenic call (Test System: AMES SALMONELLA TYPHIMURIUM, Strain/Indicator: TA104, Metabolic Activation: NONE, Method: PREINCUBATION): inactive; negative
mutagenic call (Test System: AMES SALMONELLA TYPHIMURIUM, Strain/Indicator: TA104, Metabolic Activation: RAT LIVER S-9, PHENOBARBITAL AND BETA-NAPHTHOFLAVONE, Method: PREINCUBATION): inactive; negative
mutagenic call [8]: inactive; negative
mutagenic call (Test System: AMES SALMONELLA TYPHIMURIUM, Strain/Indicator: TA1535, Metabolic Activation: RAT LIVER S-9, PHENOBARBITAL AND BETA-NAPHTHOFLAVONE, Method: PREINCUBATION): inactive; negative
mutagenic call (Test System: AMES SALMONELLA TYPHIMURIUM, Strain/Indicator: TA1537, Metabolic Activation: NONE, Method: PREINCUBATION): inactive; negative
mutagenic call (Test System: AMES SALMONELLA TYPHIMURIUM, Strain/Indicator: TA1537, Metabolic Activation: RAT LIVER S-9, PHENOBARBITAL AND BETA-NAPHTHOFLAVONE, Method: PREINCUBATION): inactive; negative
mutagenic call (Test System: E.COLI, Strain/Indicator: WP2UVRA/PKM101, Metabolic Activation: NONE, Method: PREINCUBATION): inactive; negative
mutagenic call (Test System: E.COLI, Strain/Indicator: WP2UVRA/PKM101, Metabolic Activation: RAT LIVER S-9, PHENOBARBITAL AND BETA-NAPHTHOFLAVONE, Method: PREINCUBATION): inactive; negative
mutagenic call (Test System: E.COLI, Strain/Indicator: WP2UVRA, Metabolic Activation: NONE, Method: PREINCUBATION): inactive; negative
mutagenic call (Test System: E.COLI, Strain/Indicator: WP2UVRA, Metabolic Activation: RAT LIVER S-9, PHENOBARBITAL AND BETA-NAPHTHOFLAVONE, Method: PREINCUBATION): inactive; negative

CC(=O)CN(COC(C)=O)N=O
mutagenic call [8]: active; positive

Cc1ccc2cc([N+](=O)[O-])ccc2c1
mutagenic call [7]: active; positive

Oc1cccc2c3ccccc3c3cc4ccccc4cc3c12
mutagenic call (Test System: AMES SALMONELLA TYPHIMURIUM, Strain/Indicator: TA100, Metabolic Activation: RAT, LIVER, S-9, AROCLOR 1254, Method: PREINCUBATION): inactive; negative

Nc1ccc2c(=O)[nH]sc2c1
mutagenic call [1]: inactive; negative
mutagenic call (Test System: AMES SALMONELLA TYPHIMURIUM, Strain/Indicator: TA98, Metabolic Activation: S-9, Method: STANDARD PLATE): inactive; negative
mutagenic call [2]: inactive; negative
mutagenic call (Test System: AMES SALMONELLA TYPHIMURIUM, Strain/Indicator: TA100, Metabolic Activation: S-9, Method: STANDARD PLATE): inactive; negative
mutagenic call [3]: inactive; negative
mutagenic call (Test System: AMES SALMONELLA TYPHIMURIUM, Strain/Indicator: TA1535, Metabolic Activation: S-9, Method: STANDARD PLATE): inactive; negative
mutagenic call [4]: inactive; negative
mutagenic call (Test System: AMES SALMONELLA TYPHIMURIUM, Strain/Indicator: TA1537, Metabolic Activation: S-9, Method: STANDARD PLATE): inactive; negative

CCN(CC)c1ccc(N=Nc2c(Cl)cc([N+](=O)[O-])cc2[N+](=O)[O-])cc1
mutagenic call [1]: inactive; negative
mutagenic call [5]: active; positive
mutagenic call [2]: active; positive
mutagenic call [6]: active; positive
mutagenic call (Test System: AMES SALMONELLA TYPHIMURIUM, Strain/Indicator: TA102, Metabolic Activation: NONE, Method: STANDARD PLATE): inactive; negative
mutagenic call (Test System: AMES SALMONELLA TYPHIMURIUM, Strain/Indicator: TA102, Metabolic Activation: RAT, LIVER, S-9, AROCLOR 1254, Method: STANDARD PLATE): active; positive
mutagenic call [3]: inactive; negative
mutagenic call (Test System: AMES SALMONELLA TYPHIMURIUM, Strain/Indicator: TA1535, Metabolic Activation: RAT, LIVER, S-9, AROCLOR 1254, Method: STANDARD PLATE): active; positive
mutagenic call [4]: inactive; negative
mutagenic call (Test System: AMES SALMONELLA TYPHIMURIUM, Strain/Indicator: TA1537, Metabolic Activation: RAT, LIVER, S-9, AROCLOR 1254, Method: STANDARD PLATE): active; positive
mutagenic call (Test System: CHINESE HAMSTER V-79, Strain/Indicator: V-79 (HGPRT)/6-THIOGUANINE, Metabolic Activation: NONE): inactive; negative
mutagenic call (Test System: CHINESE HAMSTER V-79, Strain/Indicator: V-79 (HGPRT)/6-THIOGUANINE, Metabolic Activation: RAT, LIVER, S-9, AROCLOR 1254): inactive; negative
mutagenic call (Test System: CHINESE HAMSTER V-79, Strain/Indicator: V-79/8-AZAGUANINE, Metabolic Activation: RAT, LIVER, S-9, AROCLOR 1254): inactive; negative
mutagenic call (Test System: CHINESE HAMSTER V-79, Strain/Indicator: V-79/8-AZAQUANINE, Metabolic Activation: NONE): inactive; negative
mutagenic call (Test System: UDS RAT HEPATOCYTES, Strain/Indicator: THY INCORP, Metabolic Activation: NONE, Method: AUTORADIOGRAPHY): inactive; negative

Cc1c2c(c(C)c3c1ccc1ccccc13)C=C[C@@H](O)[C@@H]2O
mutagenic call (Test System: CHINESE HAMSTER V-79, Strain/Indicator: V-79/OUABAIN, Metabolic Activation: CELL-MEDIATED, Method: STANDARD PLATE): active; positive
